Legend:
DNA = settings: D832A/E925A (dLbCpf1); D10A/H840A (dSpCas9); cited from earlier work
rpoB gene [1] = experiment: rpoB/Rif^r assay: EMS mutagenesis of E. coli KL16 carrying pNUC-dSpCas9 + pGUIDE-Sp-Zm7.1; format: cell-based, Escherichia coli; settings: for Rif^r CFUs in 5 μL (average) / Rif^r CFUs in 100 μL (average): one hour, cells with pNUC-dCas9 + pGUIDE-Sp-Zm7.1
Text: This example describes the Escherichia coli rpoB gene and Rifampicin-resistant (Rif^r) mutations that map to rpoB as a system to characterize mutation rates and mutation types induced by chemical mutagens.
The E. coli K12 (strain MG1655) rpoB gene (SEQ ID NO: 1) encodes a subunit of the RNA polymerase complex (SEQ ID NO: 2) and is the target of the antibiotic rifampicin, a bacterial transcription inhibitor. A unique feature of the rpoB gene is that at least 69 nucleotide substitutions in 24 amino acid codons can confer the Rif^r phenotype to E. coli. This makes rpoB a useful target for screening and analyzing the type and frequency of nucleotide changes (e.g., additions, deletions, and substitutions induced by mutagens (reviewed in Garibyan et al., 2003, DNA Repair, 2:593-608). Furthermore, a majority of mutations that confer Rifampicin resistance (>90%) map to a relatively small, 268-nucleotide long, region of the rpoB gene. This allows PCR amplification with a single pair of oligonucleotide primers, followed by sequencing, which permits rapid analysis of numerous potential mutations. The aforementioned 268-bp fragment of the E. coli K12 rpoB gene is set forth as SEQ ID NO: 3. […] However, mutants comprising short, in-frame deletions (up to five amino acids) have been found, but at a much lower frequency (see, for example, Jin and Gross, J Mol Biol. 202:45-58 (1988)).
To test the rate and spectrum of mutations induced by EMS on rpoB, an experiment was performed where E. coli KL16 cells were co-transformed with pNUC-dSpCas9 and pGUIDE-Sp-Zm7.1; treated with 0.1% or 1% EMS. Resulting Rif^r mutations were selected and scored. The rpoB gene fragment (SEQ ID NO: 3) was sequenced from each colony and the predominant mutations were identified. As noted above in Example 2, pGUIDE-Sp-Zm7.1 is not expected to target the E. coli chromosome, and thus serves as a negative control.
Approximately 0.7 μL of pNUC-dSpCas9 and pGUIDE-Sp-Zm7.1 plasmid DNAs (approximate concentrations of 50 to 150 ng/μL) were added to 30 μL aliquots of electrocompetent E. coli KL16 cells. The cells and DNA were electroporated in 1 mm gap cuvettes, using Bio-Rad GenePulser II with settings described above in Example 2. Approximately 1 mL of S.O.C. medium was added to the cuvettes, mixed, transferred to culture tubes, and shaken in a 37° C. incubator shaker for ˜90 min at 280 RPM. Approximately 20 μL of the mix was diluted with 380 μL of S.O.C. medium (1:20 dilution), 100 μL was plated on LB plates containing +25 μg/mL Cm, +50 μg/mL Spect antibiotics followed by overnight incubation at 37° C. After overnight growth, the plates contained ˜100-400 uniform single colonies. Four to five single colonies from the plates were picked and mixed in 2.5 mL liquid LB media containing +25 μg/mL Cm, +50 μg/mL Spect. The culture was grown overnight at 37° C. with shaking at 280 RPM. The following day the saturated overnight culture was diluted into 3 mL of fresh LB +25 μg/mL Cm, +50 μg/mL Spect at a 1:20 ratio. After growth for ˜3 hours shaking (280 RPM) at 37° C., the culture was in exponential growth with an A600 absorbance measurement of ˜1. The culture was split into three 1 mL aliquots in Eppendorf tubes, then spun at full speed for one minute. The LB supernatant was removed and the small pellets were resuspended by gentle pipetting into 1 mL PBS and transferred to culture tubes.
Approximately 1 μL of EMS (Sigma M0880) was added to the first tube (0.1% EMS, final conc.) and approximately 10 μL of EMS was added to the second tube (1% EMS, final conc.). The third tube received no EMS (0% EMS). After mixing, the tubes were incubated at 37° C. with shaking for one hour. The 1 mL cultures were transferred back into Eppendorf tubes and spun at full speed for 1 minute. The pellets were washed once with PBS to remove EMS and resuspended in 1 mL LB+25 μg/mL Cm, +50 μg/mL Spect. […]

rpoB gene [2] = experiment: Deep sequencing of the rpoB fragment from Rif^r colonies; format: cell-based, Escherichia coli; settings: 0.1% and 1% EMS, untargeted dCas9
Protocol: Ninety-six Rif^r colonies from 0.1% and 1% EMS treatment assays were picked and colony PCR was carried out to amplify the […] rpoB fragment. Approximately 20 μL PCRs reactions were carried out in 96 well plates, using forward and reverse primers comprising Illumina barcoded adaptors and designed to amplify a […] rpoB fragment associated with mutations conferring the Rif^r phenotype. The success of the reactions was checked by running ˜5 μL of 8-12 samples picked from across the 96 wells and running on e-gels. […] After obtaining the raw reads, adaptor sequences were removed with the program Cutadapt (Martin, EMBnet.journal, 2011, [S1], v17, n1, p. pp. 10-12, ISSN 2226-6089) and low quality reads are filtered with Trimmomatic (Version 0.36) (Bolger et al., Bioinformatics, 30:2114 (2014)). The program ‘glsearch’ (Pearson, Methods Mol Biol., 132:185-219 (2000)), was used to map reads to the reference rpoB sequence and to detect substitutions and small INDELs. […]
Individual colonies as well as plate scrapes (pooled colonies) were sequenced. […] Quality reads were obtained from 71 colonies for treatment 1, 92 colonies for treatment 2, and 89 colonies for treatment 3. Quality reads were also obtained from the Plate scrape samples.

[3] = EMS-mutated populations; cited from earlier work
rpoB gene [4] = settings: at eight sites; Garibyan et al.; cited from earlier work

Compound | DNA cleavage activity (DNA) | increase of mutation rate relative to the spontaneous mutation rate (rpoB gene [1]; 0.1% EMS) | Rif^r CFUs in 5 μL (average) (rpoB gene [1]; 0.1% EMS) | Rif^r CFUs in 100 μL (average) (rpoB gene [1]; 0.1% EMS) | increase of mutation rate relative to the spontaneous mutation rate (rpoB gene [1]; 1.0% EMS) | Rif^r CFUs in 5 μL (average) (rpoB gene [1]; 1% EMS) | Rif^r CFUs in 100 μL (average) (rpoB gene [1]; 1% EMS) | colonies with an in-frame 15 nucleotide deletion (rpoB gene [2]) | mutations previously described as inducing the Rif^r phenotype identified in the EMS screen (rpoB gene [2]) | modifications that are G:C→A:T base pair transitions [3] | mutations identified within the 268-bp stretch of rpoB, all G:C→A:T transitions (rpoB gene [4])
dSpCas9: dead SpCas9 with D10A and H840A substitutions (SEQ ID NO: 22) | complete abolishment of DNA cleavage activity |  |  |  |  |  |  |  |  |  | 
CCOS(C)(=O)=O [EMS, ethyl methanesulfonate] |  | ~40 × | 18 CFUs | 280 CFUs | ~2600 × | 1036 CFUs | >10^4 CFUs | Four | ten of the thirteen | 70% to 99% | 40

From patent publication US20200347389A1, “COMPOSITIONS AND METHODS FOR GENERATING DIVERSITY AT TARGETED NUCLEIC ACID SEQUENCES” (MONSANTO TECHNOLOGY LLC, priority 2019, published 2020)
